Experimental data from US10092529B2, “Necrosis inhibitors” (National Institute of Biological Sciences, Beijing, priority 2014, dated 2018).
Read-outs that look alike come from different tables or passages of the source.

Tests used:
HT-29 cells = assay: Necrosis assay: TNF-α/Smac mimetic/z-VAD induced necrosis, cell viability by CellTiter-Glo; type: cell-based
Protocol: HT-29 cells were cultured in McCoy's 5A culture medium (Invitrogen). On day one, HT-29 cells were plated in 96-well assay plates at density of 2,500-3,500 cells per well. On day two, necrosis were induced by adding 20 ng/ml TNF-α (T), 100 nM Smac mimetic (S), and […] z-VAD (Z). At the same time, […] compound from a chemical library of ˜200,000 compounds was delivered into each well. After 24 hrs treatment, cell viability was determined by measuring ATP level using the CellTiter-Glo Luminescent Cell Viability Assay kit. A CellTiter-Glo Assay (Promega) was performed according to the manufacturer's instructions Luminescence was recorded with a PerkinElmer EnSpire Multimode Plate Reader. Survived cells were normalized to those cells treated with DMSO. Nec-1 was used as a positive control for screening necrosis inhibitors. Data are represented as mean±standard deviation of duplicates.
Dose-dependent inhibition of necrosis by compound #9 and the derivative compounds in HT-29 cells were determined by measuring ATP levels as described above.

[1] = target: hRIP1 kinase (recombinant full-length RIPK1 protein with N-terminal GST-tag) (Homo sapiens (Human), UniProt Q13546); assay: Kinase assay of RIPK1 (ADP-Glo); type: biochemical; conditions: for IC50: 161 nM RIPK1, 50 uM ATP, 20 uM MBP, 90 min
Protocol: Materials: Recombinant full-length RIPK1 protein with N-terminal GST-tag (Cat#R07-34G) was purchased from SignalChem. The ADP-Glo™ kinase assay kit (Cat#V9102) was from Promega. MBP (cat# M2295) protein and all the other chemicals were from Sigma. The 384-well assay plates (Cat#3674, white, opaque) were purchased from Corning.
Kinase activity assay and data analysis: The RIPK1 kinase assay was performed in white 384-well plate. The assay buffer contained 25 mM HEPES (pH7.2), 20 mM MgCl2, 12.5 mM MnCl2, 5 mM EGTA, 2 mM EDTA, 12.5 mM β-glycerol phosphate and 2 mM DTT. RIPK1 was first incubated with compounds or DMSO control for […], then ATP/MBP substrate mixture was added to initiate the reaction. The final concentration of RIPK1 was 161 nM, while the final concentration of ATP was 50 uM, and MBP 20 uM. After 90 min reaction at room temperature, the ADP-Glo reagent and detection solution were added following the technical manual of ADP-Glo™ kinase assay kit (Promega). The luminescence was measured on PerkinElmer Enspire. The data was analyzed using Graphpad Prism (GraphPad Software; www.graphpad.com). The curves were fitted using a non-linear regression model with a sigmoidal dose response.

[2] = Homo sapiens, necrosis induced by TNF-α/Smac mimetic/z-VAD, 24 hrs, ATP level, read-out: Cell viability assay, EC50
[3] = inhibition of necrosis, ATP levels, range given in nM, read-out: EC50 (necrosis activity)

Sequence of hRIP1 kinase (recombinant full-length RIPK1 protein with N-terminal GST-tag) (Q13546 whole entry): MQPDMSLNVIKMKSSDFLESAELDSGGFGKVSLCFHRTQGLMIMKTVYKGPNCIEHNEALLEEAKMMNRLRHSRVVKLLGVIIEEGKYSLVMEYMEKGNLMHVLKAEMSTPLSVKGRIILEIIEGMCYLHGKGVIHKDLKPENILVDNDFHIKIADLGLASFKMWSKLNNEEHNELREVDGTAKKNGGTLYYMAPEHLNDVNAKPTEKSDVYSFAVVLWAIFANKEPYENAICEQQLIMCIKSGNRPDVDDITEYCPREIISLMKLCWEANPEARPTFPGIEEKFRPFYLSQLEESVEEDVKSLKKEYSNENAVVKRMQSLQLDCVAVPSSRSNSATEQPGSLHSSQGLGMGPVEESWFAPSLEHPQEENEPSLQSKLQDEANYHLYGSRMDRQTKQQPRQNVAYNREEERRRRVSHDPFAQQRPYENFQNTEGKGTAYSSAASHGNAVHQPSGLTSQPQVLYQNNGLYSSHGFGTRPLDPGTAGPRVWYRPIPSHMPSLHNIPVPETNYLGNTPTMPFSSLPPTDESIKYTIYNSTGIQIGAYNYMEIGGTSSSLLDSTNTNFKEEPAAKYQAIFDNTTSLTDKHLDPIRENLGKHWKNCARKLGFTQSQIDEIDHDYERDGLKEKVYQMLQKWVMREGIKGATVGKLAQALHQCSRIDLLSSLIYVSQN

SMILES: CCC(C)(C)C(=O)N1CCCC1c1cc(F)cc(F)c1F (stereo not drawn) [Compound 10, 2,2-dimethyl-1-(2-(2,3,5-trifluorophenyl)pyrrolidin-1-yl)butan-1-one]
- EC50 (HT-29 cells; [2]): 9.88 nM
- EC50 (HT-29 cells; [3]): 1 to 1000 nM
- IC50 [1]: 22.5 nM

SMILES: C=CC(C)(C)C(=O)N1C(=O)C[C@H]1c1ccccc1 [Compound 38, (S)-1-(2,2-dimethylbut-3-enoyl)-4-phenylazetidin-2-one]
- EC50 (HT-29 cells; [2]): 8.39 nM
- EC50 (HT-29 cells; [3]): 1 to 1000 nM
- IC50 [1]: 13.7 nM

SMILES: CCC(C)(C)C(=O)N1C[C@@H](O)C[C@H]1c1ccccc1 [Compound 13, 1-((2S,4S)-4-hydroxy-2-phenylpyrrolidin-1-yl)-2,2-dimethylbutan-1-one]
- EC50 (HT-29 cells; Homo sapiens, inhibition of necrosis, ATP levels, range given in uM, read-out: EC50 (necrosis activity)): 1000 to 10000 nM
- EC50 (HT-29 cells; [2]): 2620 nM
- inhibition at 2 µM [1]: 69%

SMILES: CCC(C)(C)C(=O)N1C[C@H](O)C[C@H]1c1ccccc1 [Compound 15, 1-((2S,4R)-4-hydroxy-2-phenylpyrrolidin-1-yl)-2,2-dimethylbutan-1-one]
- EC50 (HT-29 cells; [2]): 396 nM
- EC50 (HT-29 cells; [3]): 1 to 1000 nM
- IC50 [1]: 460 nM

SMILES: CCC(C)(C)C(=O)N1CCC1c1ccccc1 (stereo not drawn) [Compound 2, 2,2-dimethyl-1-(2-phenylazetidin-1-yl)butan-1-one]
- EC50 (HT-29 cells; [2]): 29.6 nM
- EC50 (HT-29 cells; [3]): 1 to 1000 nM
- IC50 [1]: 34.8 nM

SMILES: CCC(C)(C)C(=O)N1C(=O)CC1c1cccc(N=[N+]=[N-])c1 (stereo not drawn) [Compound 25, 4-(3-azidophenyl)-1-(2,2-dimethylbutanoyl)azetidin-2-one]
- EC50 (HT-29 cells; [2]): 556 nM
- EC50 (HT-29 cells; [3]): 1 to 1000 nM
- IC50 [1]: 152 nM

SMILES: CCC(C)(C)C(=O)N1C(=O)N(C)C[C@H]1c1ccccc1 [Compound 31, (R)-3-(2,2-dimethylbutanoyl)-1-methyl-4-phenylimidazolidin-2-one]
- EC50 (HT-29 cells; [2]): 609 nM
- EC50 (HT-29 cells; [3]): 1 to 1000 nM
- IC50 [1]: 1060 nM

SMILES: CCC(C)(C)C(=O)N1C(=O)C[C@H]1c1ccccc1 [Compound 24, (S)-1-(2,2-dimethylbutanoyl)-4-phenylazetidin-2-one]
- EC50 (HT-29 cells; [2]): 7 nM
- EC50 (HT-29 cells; [3]): 1 to 1000 nM
- IC50 [1]: 19.8 nM
